What was measured:
VCaP [1] = assay: Antitumor activity against human VCaP cells xenografted in CB17-SCID mouse assessed as tumor growth inhibition at 20 mg/kg, po administered for 21 days; settings: 504 h, read-out: TGI
VCaP [2] = assay: Growth inhibition in human VCaP cells
[3] = Volume of distribution at steady state in Sprague-Dawley rat at 2 mg/kg, iv measured upto 24 hrs by LC-MS/MS analysis; settings: in vivo
[4] = Clearance in Sprague-Dawley rat at 2 mg/kg, iv measured upto 24 hrs by LC-MS/MS analysis; settings: in vivo
[5] = Metabolic stability in mouse liver microsome assessed as half life measured upto 45 mins in presence of NADPH by LC-MS/MS analysis; assay type: ADME; settings: liver microsomes
[6] = Metabolic stability in non human primate liver microsome assessed as half life measured upto 45 mins in presence of NADPH by LC-MS/MS analysis; assay type: ADME; settings: primates, liver microsomes
[7] = Metabolic stability in human liver microsome assessed as half life measured upto 45 mins in presence of NADPH by LC-MS/MS analysis; assay type: ADME; settings: liver microsomes
[8] = Metabolic stability in mouse liver microsome assessed as parent compound remaining measured at 120 mins in presence of NADPH by LC-MS/MS analysis; assay type: ADME; settings: liver microsomes, read-out: Stability
[9] = Metabolic stability in rat liver microsome assessed as parent compound remaining measured at 120 mins in presence of NADPH by LC-MS/MS analysis; assay type: ADME; settings: liver microsomes, read-out: Stability
[10] = Metabolic stability in non human primate liver microsome assessed as parent compound remaining measured at 120 mins in presence of NADPH by LC-MS/MS analysis; assay type: ADME; settings: primates, liver microsomes, read-out: Stability
[11] = Metabolic stability in human plasma assessed as half life measured after 2 hrs by LC-MS/MS analysis; assay type: ADME, cell-free
[12] = Metabolic stability in dog plasma assessed as parent compound remaining measured after 120 mins by LC-MS/MS analysis; assay type: ADME, cell-free, Canis lupus familiaris; settings: read-out: Stability
[13] = Metabolic stability in non human primate plasma assessed as parent compound remaining measured after 120 mins by LC-MS/MS analysis; assay type: ADME, cell-free; settings: primates, read-out: Stability
[14] = Metabolic stability in human plasma assessed as parent compound remaining measured after 120 mins by LC-MS/MS analysis; assay type: ADME, cell-free; settings: read-out: Stability
[15] = AUC (0 to t) in ICR mouse at 2 mg/kg, iv measured upto 24 hrs by LC-MS/MS analysis; assay type: ADME, organism-based; design: dose 2 mg/kg, time < 24 hrs, route iv; settings: in vivo
[16] = Half life in ICR mouse at 5 mg/kg, po measured upto 24 hrs by LC-MS/MS analysis; assay type: ADME, organism-based; settings: in vivo
[17] = Half life in Beagle dog at 1 mg/kg, iv measured upto 24 hrs by LC-MS/MS analysis; assay type: ADME, organism-based, Canis lupus familiaris; settings: in vivo
[18] = Oral bioavailability in Beagle dog at 10 mg/kg measured upto 24 hrs by LC-MS/MS analysis; assay type: ADME, organism-based, Canis lupus familiaris; settings: in vivo
[19] = Half life in non human primate assessed as half life at 1 mg/kg, iv measured upto 24 hrs by LC-MS/MS analysis; assay type: ADME, organism-based; settings: primates, in vivo
[20] = AUC (0 to t) in non human primate at 1 mg/kg, iv measured upto 24 hrs by LC-MS/MS analysis; assay type: ADME, organism-based; design: dose 1 mg/kg, time < 24 hrs, route iv; settings: primates, in vivo
[21] = Tmax in non human primate at 2 mg/kg, po measured upto 24 hrs by LC-MS/MS analysis; assay type: ADME, organism-based; settings: primates, in vivo
[22] = Half life in non human primate at 2 mg/kg, po measured upto 24 hrs by LC-MS/MS analysis; assay type: ADME, organism-based; settings: primates, in vivo
[23] = Cmax in non human primate at 2 mg/kg, po measured upto 24 hrs by LC-MS/MS analysis; assay type: ADME, organism-based; design: dose 2 mg/kg, time < 24 hrs, route po; settings: primates, in vivo
in vivo = settings: Sprague-Dawley, rat, po, 5 mg/kg

## C[C@H]1CC2(CCN(c3ccc(C(=O)N4CCC(CN5Cc6cc7c(cc6C5)C(=O)N(C5CCC(=O)NC5=O)C7=O)CC4)cc3)CC2)CN1c1ccc(C#N)c(Cl)c1 (some centres undefined)
VCaP [1]
  inhibition in vivo at 20 mg/kg: 68%
VCaP [2]
  IC50: 11.5 nM
[3]
  Vd at 24 h: 1.7 L/kg
[4]
  clearance at 24 h: 6 mL/min/kg
[5]
  half-life at […]: > 1 h
[6]
  half-life at […]: > 1 h
[7]
  half-life at […]: > 1 h
[8]
  remaining at 2 h: 82%
[9]
  remaining at 2 h: 87%
[10]
  remaining at 2 h: 82%
[11]
  half-life: > 2 h
[12]
  remaining at 2 h: 71%
[13]
  remaining at 2 h: 92%
[14]
  remaining at 2 h: 69%
[15]
  AUC(0-t) at 24 h: 50500 ng·h/mL
[16]
  half-life: 4.4 h
[17]
  half-life: 9.9 h
[18]
  bioavailability: 31%
[19]
  half-life: 10 h
[20]
  AUC(0-t) at 24 h: 5170 ng·h/mL
[21]
  Tmax: 3.33 h
[22]
  half-life: 9.62 h
[23]
  Cmax: 1520 ng/mL
In vivo
  AUC(0-t) at 24 h: 6020 ng·h/mL

From ChEMBL document CHEMBL5365467 (J Med Chem, 2023)
